Legend:
Plasma stability assay [1] = format: in vitro ADME, mouse; conditions: 37 °C, 30 min
Protocol: (§1) The plasma stability of LJ-4378 was evaluated using 100% plasma obtained from human (Biochemed, BC22089NCP, sodium citrate), rat (Innovative, IRT-N, sodium citrate), and mouse (Biochemed, 029-APSC-MP, sodium citrate). 10 Μm of LJ-4378 was added to the plasma, and samples were incubated at 37 °C for 0, 30, and 120 min. At each time point, an aliquot of the plasma was removed and mixed with acetonitrile containing the internal standard, chlorpropamide (TRC, C424800). […] The supernatant was injected into the LC–MS/MS system for quantification of the remaining compound. Analysis was performed using a Nexera XR system (Shimadzu, Japan) with a TSQ Vantage mass spectrometer (Thermo, USA). […] Data acquisition was conducted in MRM mode using Xcalibur software (version 4.4). All experiments were performed in duplicate with a deviation within 15%, and the percentage of compound remaining (% Remaining) at each time point was calculated relative to the non-incubated control sample. For quality control, procaine and enalapril (each at 10 μM) were used as reference compounds and were confirmed to fall within acceptable ranges.

WR mice = test: WR model: indirect calorimetry and adipose immunoblot after treatment cessation; format: in vivo, C57BL/6 J male mice
Source text: To assess post-treatment weight rebound (WR), the mice previously treated with vehicle, LJ-4378, or TZP were maintained on HFD for an additional 4 weeks following treatment cessation. Treatment protocols for the WR groups were identical to those of the HFD groups. In total, nine experimental groups were established: NCD + CTL, NCD + LJ, NCD + TZP; HFD + CTL, HFD + LJ, HFD + TZP; and WR + CTL, WR + LJ, WR + TZP. The volume of oxygen consumed (VO2), carbon dioxide produced (VCO2), respiratory exchange ratio (RER), energy expenditure, activity, and food intake were measured with PhenoMaster (TSE Systems, Bad Homburg, Germany). Indirect calorimetry was performed under controlled conditions, with a stable ambient temperature of 24 °C and a 12 h light/12-h dark cycle. Mice fed HFD were administered vehicle, LJ-4378, or TZP for 14 days, and the last 2 days of treatment were conducted during indirect calorimetry analysis. The WR model was examined by indirect calorimetry after 2 and 4 weeks of the weight regaining phase.
For protein extraction, we utilized PRO-RERP Protein Extraction Solution (17081, iNtRON Biotechnology, Gyeonggi-do, Korea), supplemented with […] Protease Inhibitor (S8820, Sigma, St. Louis, MO, USA) and PhosSTOP phosphatase inhibitor (#4906837001, Roche, Basel, Switzerland). Protein concentrations were determined using the Pierce BCA protein assay Kit (#23227, Thermo Fisher, Waltham, Massachusetts, USA) by measuring absorbance at 562 nm with a MultiSkan GO spectrophotometer (Thermo Fisher). The quantified proteins were loaded and separated in 12% SDS-PAGE gels and transferred to polyvinylidene difluoride (PVDF) membranes (Bio-Rad, Hercules, CA, USA). Membranes were blocked in 5% bovine serum albumin or skim milk in Tris-buffered saline with 0.1% Tween 20 (TBST) for 1 h, followed by overnight incubation with primary antibodies. The next day, membranes were washed 3 times with TBST and incubated for 1 h with horseradish peroxidase (HRP)-conjugated secondary antibody: Goat anti-rabbit (1:3000, #31460, Thermo Fisher) and Goat anti-Mouse IgG (1:3000, 115–035-174, Jackson ImmunoResearch). After secondary antibody incubation, membranes were washed 3 times with TBST and detected with the Fusion Solo chemiluminescence imaging system (Vilber Lourmat, France). EvolutionCapt (version 17.03) software and the ImageJ (National Institutes of Health, Bethesda, MD, USA) program were used for analysis and to quantify the protein level.

[2] = Pharmacokinetic study in mice, single I.V. or P.O. administration; format: in vivo, male C57BL/6 J mice; conditions: for F (oral bioavailability): dose-normalized AUCinf
Protocol: The pharmacokinetics of LJ-4378 were evaluated in male C57BL/6 J mice following a single administration by either the oral (P.O.) or intravenous (I.V.) route. For P.O., LJ-4378 was administered at 10, 20, or 50 mg/kg in a vehicle composed of 0.5 mg/mL L-ascorbic acid, 5% DMSO, 20% PEG400, 20% Tween 80, and 55% of 0.1% copovidone. For I.V. administration, a 2 mg/kg dose was delivered via tail vein injection in a vehicle consisting of 5% DMSO, 25% PEG400, and 70% sterile water. Blood samples (200 μL) were collected at 5, 15, and 30 min and 1, 2, 4, 8, 12, and 24 h post-dose for the P.O. groups, and at 2, 5, 15, and 30 min and 1, 2, 4, 8, and 12 h post-dose for the I.V. group. Plasma was separated by centrifugation, and the concentrations of LJ-4378 were determined using a validated LC–MS/MS method. Pharmacokinetic parameters were calculated using non-compartmental analysis with Phoenix WinNonlin (v8.3), and included Cmax, Tmax, AUClast, AUCinf, t1/2, and clearance (Maclean et al. [2011]). Oral bioavailability was calculated using dose-normalized AUCinf values.

Plasma stability assay [3] = format: in vitro ADME, human; conditions: 37 °C, 30 min
Protocol: as §1

mice = test: Serum markers of hepatic, renal and cardiac toxicity; format: in vivo; conditions: 1 mg/kg, 2 weeks
Protocol: Serum aspartate aminotransferase (AST), alanine aminotransferase (ALT), blood urea nitrogen (BUN), Creatinine, Creatine kinase MB (CKMB), and lactate dehydrogenase (LDH) levels were analyzed with Fujifilm Dri-Chem 3500 s (Fujifilm, Kanagawa, Japan) according to the manufacturer’s instructions. The slides GOT/AST-P III, GPT/ALT-P III, BUN-P III, CRE-P III, CKMB-P, and LDH-P III were used.
a-f. Serum levels of aspartate transaminase (AST), alanine transaminase (ALT), blood urea nitrogen (BUN), creatinine, creatine kinase MB (CKMB), and lactate dehydrogenase (LDH) in 2 weeks of LJ-4378 (1mg/kg) treatment in mice. n = 3. Statistical significance was determined using an unpaired two-tailed t-test.

[4] = two weeks after treatment cessation

CCCCC#Cc1nc(N)c2ncn([C@@H]3SC[C@@H](O)[C@H]3O)c2n1 [LJ-4378]
% Remaining compound, Mouse plasma 30 min (Plasma stability assay [1]): 98.4% | P-HSL and mitochondrial proteins in BAT and iWAT, versus WR controls and TZP (WR mice; 2 weeks after treatment cessation): higher levels | energy expenditure, ANCOVA adjusted for body mass, versus vehicle or TZP (WR mice; 2 weeks post-treatment, WR): higher energy expenditure | elevated energy expenditure after 4 weeks of WR (WR mice; 4 weeks post-treatment): no longer evident | VO2, VCO2 and energy expenditure compared with TZP-treated group (WR mice; [4]): significantly higher | VO2, VCO2 and energy expenditure compared with WR controls (WR mice; [4]): elevated | AUC0-t ([2]; I.V. 2.00 mg/kg): 411.45 ng·h/mL | CL ([2]; I.V. 2.00 mg/kg): 80.7 (mL/min)/kg | Cmax ([2]; I.V. 2.00 mg/kg): 2395.23 ng/mL | Tmax ([2]; I.V. 2.00 mg/kg): 1.8 min | t1/2 ([2]; I.V. 2.00 mg/kg): 27.6 min | AUC0-t ([2]; P.O. 10.00 mg/kg): 1273.67 ng·h/mL | CL ([2]; P.O. 10.00 mg/kg): 128.5 (mL/min)/kg | Cmax ([2]; P.O. 10.00 mg/kg): 1220.57 ng/mL | Tmax ([2]; P.O. 10.00 mg/kg): 4.8 min | t1/2 ([2]; P.O. 10.00 mg/kg): 158 min | F (oral bioavailability) ([2]; P.O. 10.00 mg/kg): 62.93% | AUC0-t ([2]; P.O. 20.00 mg/kg): 3067.21 ng·h/mL | CL ([2]; P.O. 20.00 mg/kg): 103.2 (mL/min)/kg | Cmax ([2]; P.O. 20.00 mg/kg): 2401.74 ng/mL | Tmax ([2]; P.O. 20.00 mg/kg): 15 min | t1/2 ([2]; P.O. 20.00 mg/kg): 233 min | F (oral bioavailability) ([2]; P.O. 20.00 mg/kg): 78.42% | AUC0-t ([2]; P.O. 50.00 mg/kg): 8446.78 ng·h/mL | CL ([2]; P.O. 50.00 mg/kg): 93.0 (mL/min)/kg | Cmax ([2]; P.O. 50.00 mg/kg): 5307.60 ng/mL | Tmax ([2]; P.O. 50.00 mg/kg): 30 min | t1/2 ([2]; P.O. 50.00 mg/kg): 187 min | F (oral bioavailability) ([2]; P.O. 50.00 mg/kg): 86.08% | % Remaining compound, Human plasma 30 min (Plasma stability assay [3]): 97.0% | hepatic, renal, and cardiac injury markers (AST, ALT, BUN, creatinine, CKMB, LDH) (mice): no evidence of organ toxicity
